From patent publication US7998952B2, “Thiolactams and uses thereof” (Millennium Pharmaceuticals, Inc., priority 2008, dated 2011)

Target: T1, recombinant human PLK1[2-369]T210D (Homo sapiens, UniProt P53350, T210D)
T1 construct: recombinant human PLK1[2-369]T210D; Smt (SUMO) fusion partner (N, cleaved yes); host or cells: E. coli
Experiment: PLK1 DELFIA Kinase Assay
Assay type: biochemical
Settings: 50 μM ATP, 2 μM peptide substrate, 0.3 nM enzyme, 90 minutes at room temperature
Outline: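 E. coli-expressed human PLK1, cleaved from an Smt fusion after Ni2+ purification, is reacted with or without inhibitor for 90 minutes at room temperature and stopped with EDTA. Product is captured on Neutravidin plates and quantified by europium DELFIA time-resolved fluorescence.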

T1 sequence (P53350 2-369 T210D): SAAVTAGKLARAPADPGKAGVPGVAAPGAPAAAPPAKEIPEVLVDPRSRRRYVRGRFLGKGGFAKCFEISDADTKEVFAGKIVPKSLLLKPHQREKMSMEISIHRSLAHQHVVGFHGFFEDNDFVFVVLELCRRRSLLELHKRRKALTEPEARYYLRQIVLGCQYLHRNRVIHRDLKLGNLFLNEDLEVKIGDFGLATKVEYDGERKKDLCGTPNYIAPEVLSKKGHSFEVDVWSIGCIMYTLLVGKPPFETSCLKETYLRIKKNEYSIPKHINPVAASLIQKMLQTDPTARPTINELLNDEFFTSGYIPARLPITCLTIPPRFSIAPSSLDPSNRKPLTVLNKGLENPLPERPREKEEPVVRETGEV

`Cc1ncc(CCCN(C)C)cc1Nc1ncc2c(n1)-c1cc(C(F)(F)F)ccc1NC(=S)C2` [Compound I-117, 2-({5-[3-(dimethylamino)propyl]-2-methylpyridin-3-yl}amino)-10-(trifluoromethyl)-5,7-dihydro-6H-pyrimido[5,4-d][1]benzazepine-6-thione] was tested. Which IC50 did it give?
Its IC50 is 5 to 25 nM.

Which IC50 does the source give for `Cc1nc(C(=O)NCCN(C)C)ccc1Nc1ncc2c(n1)-c1ccc(C(F)(F)F)cc1NC(=S)C2` [Compound I-118, N-[2-(dimethylamino)ethyl]-6-methyl-5-{[6-thioxo-9-(trifluoromethyl)-6,7-dihydro-5H-pyrimido[5,4-d][1]benzazepin-2-yl]amino}pyridine-2-carboxamide] here?
The IC50 was 5 to 25 nM.

For `Cc1ncc(CCCN(C)C)cc1Nc1ncc2c(n1)-c1cc(CCCN(C)C)c(Cl)cc1NC(=S)C2` [Compound I-120, 9-chloro-10-[3-(dimethylamino)propyl]-2-({5-[3-(dimethylamino)propyl]-2-methylpyridin-3-yl}amino)-5,7-dihydro-6H-pyrimido[5,4-d][1]benzazepine-6-thione], which IC50 is on record?
Its IC50 is > 25 nM.

`Cc1nc(NC(=O)CN(C)C)ccc1Nc1ncc2c(n1)-c1ccc(C(F)(F)F)cc1NC(=S)C2` [Compound I-121, 2-(dimethylamino)-N-(6-methyl-5-{[6-thioxo-9-(trifluoromethyl)-6,7-dihydro-5H-pyrimido[5,4-d][1]benzazepin-2-yl]amino}pyridin-2-yl)acetamide] was tested. Which IC50 did it give?
The IC50 was 5 to 25 nM.

For `Cc1nc2c(cc1Nc1ncc3c(n1)-c1ccc(C(F)(F)F)cc1NC(=S)C3)CCC(N(C)C)C2` (stereo not drawn) [Compound I-122, 2-{[7-(dimethylamino)-2-methyl-5,6,7,8-tetrahydroquinolin-3-yl]amino}-9-(trifluoromethyl)-5,7-dihydro-6H-pyrimido[5,4-d][1]benzazepine-6-thione], which IC50 is on record?
The IC50 was 5 to 25 nM.

Which IC50 does the source give for `Cc1nc(C(=O)NC2CCN(C)CC2)ccc1Nc1ncc2c(n1)-c1ccc(C(F)(F)F)cc1NC(=S)C2` [Compound I-123, 6-methyl-N-(1-methylpiperidin-4-yl)-5-{[6-thioxo-9-(trifluoromethyl)-6,7-dihydro-5H-pyrimido[5,4-d][1]benzazepin-2-yl]amino}pyridine-2-carboxamide] here?
The IC50 was 5 to 25 nM.
